Source: PubChem BioAssay (NCI)
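Method: 48-hour compound exposure of cells in 96-well plates, five concentrations, linear interpolation of endpoints. TGI marks complete inhibition of growth.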

Assays:
Experiment in all cases: NCI tumour cell line growth inhibition, 48 h
786-0 renal = tested on: 786-0 renal
A498 renal = tested on: A498 renal
A549 NSCLC = tested on: A549 NSCLC
ACHN renal = tested on: ACHN renal
CAKI-1 renal = tested on: CAKI-1 renal
COLO 205 colon = tested on: COLO 205 colon
DLD-1 colon = tested on: DLD-1 colon
DMS 114 small cell lung = tested on: DMS 114 small cell lung
DMS 273 small cell lung = tested on: DMS 273 small cell lung
EKVX NSCLC = tested on: EKVX NSCLC
HCC-2998 colon = tested on: HCC-2998 colon
HCT-116 colon = tested on: HCT-116 colon
HCT-15 colon = tested on: HCT-15 colon
HOP-18 NSCLC = tested on: HOP-18 NSCLC
HOP-62 NSCLC = tested on: HOP-62 NSCLC
HT29 colon = tested on: HT29 colon
IGROV1 ovarian = tested on: IGROV1 ovarian
K-562 leukemia = tested on: K-562 leukemia
KM12 colon = tested on: KM12 colon
KM20L2 colon = tested on: KM20L2 colon
LOX IMVI melanoma = tested on: LOX IMVI melanoma
LXFL 529 NSCLC = tested on: LXFL 529 NSCLC
M14 melanoma = tested on: M14 melanoma
M19-MEL melanoma = tested on: M19-MEL melanoma
MOLT-4 leukemia = tested on: MOLT-4 leukemia
NCI-H23 lung = tested on: NCI-H23 lung
NCI-H460 lung = tested on: NCI-H460 lung
NCI-H522 lung = tested on: NCI-H522 lung
OVCAR-3 ovarian = tested on: OVCAR-3 ovarian
OVCAR-4 ovarian = tested on: OVCAR-4 ovarian
OVCAR-5 ovarian = tested on: OVCAR-5 ovarian
OVCAR-8 ovarian = tested on: OVCAR-8 ovarian
RPMI-8226 leukemia = tested on: RPMI-8226 leukemia
RXF 393 renal = tested on: RXF 393 renal
SF-268 CNS = tested on: SF-268 CNS
SF-295 CNS = tested on: SF-295 CNS
SF-539 CNS = tested on: SF-539 CNS
SK-MEL-28 melanoma = tested on: SK-MEL-28 melanoma
SK-MEL-5 melanoma = tested on: SK-MEL-5 melanoma
SK-OV-3 ovarian = tested on: SK-OV-3 ovarian
SN12C renal = tested on: SN12C renal
SNB-19 CNS = tested on: SNB-19 CNS
SNB-75 CNS = tested on: SNB-75 CNS
SNB-78 CNS = tested on: SNB-78 CNS
SR leukemia = tested on: SR leukemia
SW-620 colon = tested on: SW-620 colon
TK-10 renal = tested on: TK-10 renal
U251 CNS = tested on: U251 CNS
UACC-257 melanoma = tested on: UACC-257 melanoma
UACC-62 melanoma = tested on: UACC-62 melanoma
UO-31 renal = tested on: UO-31 renal
XF 498 CNS = tested on: XF 498 CNS
BT-549 breast = tested on: BT-549 breast
CCRF-CEM leukemia = tested on: CCRF-CEM leukemia
DU-145 prostate = tested on: DU-145 prostate
HL-60(TB) leukemia = tested on: HL-60(TB) leukemia
HOP-92 NSCLC = tested on: HOP-92 NSCLC
HS 578T breast = tested on: HS 578T breast
MALME-3M melanoma = tested on: MALME-3M melanoma
MCF7 breast = tested on: MCF7 breast
MDA-MB-231 breast = tested on: MDA-MB-231 breast
MDA-MB-435 = tested on: MDA-MB-435
MDA-N = tested on: MDA-N
NCI-H226 lung = tested on: NCI-H226 lung
NCI/ADR-RES ovarian = tested on: NCI/ADR-RES ovarian
PC-3 prostate = tested on: PC-3 prostate
SK-MEL-2 melanoma = tested on: SK-MEL-2 melanoma
T-47D breast = tested on: T-47D breast

Clc1ccc(C2=Nc3ccccc3SC(c3cccs3)C2)cc1 (configuration not stated)
TGI (786-0 renal): 29.8 µM | TGI (A498 renal): 28.1 µM | TGI (A549 NSCLC): 36 µM | TGI (ACHN renal): 28.7 µM | TGI (CAKI-1 renal): 31.3 µM | TGI (COLO 205 colon): 31.2 µM | TGI (DLD-1 colon): 22 µM | TGI (DMS 114 small cell lung): 31.2 µM | TGI (DMS 273 small cell lung): 27.1 µM | TGI (EKVX NSCLC): 31.3 µM | TGI (HCC-2998 colon): 30.9 µM | TGI (HCT-116 colon): 20 µM | TGI (HCT-15 colon): 27.1 µM | TGI (HOP-18 NSCLC): 35 µM | TGI (HOP-62 NSCLC): 39.3 µM | TGI (HT29 colon): 27.8 µM | TGI (IGROV1 ovarian): 28 µM | TGI (K-562 leukemia): 33.7 µM | TGI (KM12 colon): 22.5 µM | TGI (KM20L2 colon): 30.2 µM | TGI (LOX IMVI melanoma): 19.9 µM | TGI (LXFL 529 NSCLC): 31.3 µM | TGI (M14 melanoma): 30 µM | TGI (M19-MEL melanoma): 28.8 µM | TGI (MOLT-4 leukemia): > 100 µM | TGI (NCI-H23 lung): 27.2 µM | TGI (NCI-H460 lung): 32 µM | TGI (NCI-H522 lung): 32 µM | TGI (OVCAR-3 ovarian): 24 µM | TGI (OVCAR-4 ovarian): 27.2 µM | TGI (OVCAR-5 ovarian): 27.6 µM | TGI (OVCAR-8 ovarian): 30.4 µM | TGI (RPMI-8226 leukemia): 7.26 µM | TGI (RXF 393 renal): 22.7 µM | TGI (SF-268 CNS): 30.4 µM | TGI (SF-295 CNS): 28.2 µM | TGI (SF-539 CNS): 32 µM | TGI (SK-MEL-28 melanoma): 31.8 µM | TGI (SK-MEL-5 melanoma): 30.2 µM | TGI (SK-OV-3 ovarian): 30.5 µM | TGI (SN12C renal): 29.3 µM | TGI (SNB-19 CNS): 30.3 µM | TGI (SNB-75 CNS): 34.1 µM | TGI (SNB-78 CNS): 85.2 µM | TGI (SR leukemia): 62.4 µM | TGI (SW-620 colon): 25.8 µM | TGI (TK-10 renal): 31.1 µM | TGI (U251 CNS): 24.1 µM | TGI (UACC-257 melanoma): 29.4 µM | TGI (UACC-62 melanoma): 29.1 µM | TGI (UO-31 renal): 26.4 µM | TGI (XF 498 CNS): 29.8 µM

S=C(S)N1CCOCC1
TGI (786-0 renal): > 41.4 µM | TGI (A498 renal): > 54.4 µM | TGI (A549 NSCLC): > 100 µM | TGI (ACHN renal): > 100 µM | TGI (BT-549 breast): > 100 µM | TGI (CAKI-1 renal): > 34 µM | TGI (CCRF-CEM leukemia): 4.42 µM | TGI (COLO 205 colon): 5.98 µM | TGI (DLD-1 colon): 5.22 µM | TGI (DMS 114 small cell lung): 0.904 µM | TGI (DMS 273 small cell lung): 21.1 µM | TGI (DU-145 prostate): > 100 µM | TGI (EKVX NSCLC): > 100 µM | TGI (HCC-2998 colon): > 31.1 µM | TGI (HCT-116 colon): 24.9 µM | TGI (HCT-15 colon): > 60.1 µM | TGI (HL-60(TB) leukemia): 14.3 µM | TGI (HOP-18 NSCLC): > 100 µM | TGI (HOP-62 NSCLC): > 100 µM | TGI (HOP-92 NSCLC): > 100 µM | TGI (HS 578T breast): > 100 µM | TGI (HT29 colon): 17.1 µM | TGI (IGROV1 ovarian): > 100 µM | TGI (K-562 leukemia): 24.9 µM | TGI (KM12 colon): > 100 µM | TGI (KM20L2 colon): > 53.2 µM | TGI (LOX IMVI melanoma): > 78.3 µM | TGI (LXFL 529 NSCLC): > 100 µM | TGI (M14 melanoma): 98.4 µM | TGI (M19-MEL melanoma): 12.4 µM | TGI (MALME-3M melanoma): > 64.2 µM | TGI (MCF7 breast): > 100 µM | TGI (MDA-MB-231 breast): > 100 µM | TGI (MDA-MB-435): > 100 µM | TGI (MDA-N): > 100 µM | TGI (MOLT-4 leukemia): 9.89 µM | TGI (NCI-H226 lung): > 100 µM | TGI (NCI-H23 lung): > 34 µM | TGI (NCI-H460 lung): > 29.6 µM | TGI (NCI-H522 lung): 3.98 µM | TGI (NCI/ADR-RES ovarian): > 100 µM | TGI (OVCAR-3 ovarian): 15.8 µM | TGI (OVCAR-4 ovarian): > 34.5 µM | TGI (OVCAR-5 ovarian): > 100 µM | TGI (OVCAR-8 ovarian): > 100 µM | TGI (PC-3 prostate): > 100 µM | TGI (RPMI-8226 leukemia): 42.6 µM | TGI (RXF 393 renal): 12.7 µM | TGI (SF-268 CNS): > 100 µM | TGI (SF-295 CNS): > 100 µM | TGI (SF-539 CNS): > 83.6 µM | TGI (SK-MEL-2 melanoma): > 100 µM | TGI (SK-MEL-28 melanoma): 82.2 µM | TGI (SK-MEL-5 melanoma): > 63.9 µM | TGI (SK-OV-3 ovarian): > 100 µM | TGI (SN12C renal): > 100 µM | TGI (SNB-19 CNS): > 100 µM | TGI (SNB-75 CNS): > 29.8 µM | TGI (SNB-78 CNS): > 100 µM | TGI (SR leukemia): 14.8 µM | TGI (SW-620 colon): 16.5 µM | TGI (T-47D breast): > 100 µM | TGI (TK-10 renal): > 100 µM | TGI (U251 CNS): 25.8 µM | TGI (UACC-257 melanoma): > 100 µM | TGI (UACC-62 melanoma): 15 µM | TGI (UO-31 renal): > 100 µM | TGI (XF 498 CNS): 16 µM

CN[C@H](C)[C@@H](OC)c1ccccc1
TGI (786-0 renal): > 100 µM | TGI (A549 NSCLC): > 100 µM | TGI (ACHN renal): > 100 µM | TGI (CAKI-1 renal): > 100 µM | TGI (CCRF-CEM leukemia): > 100 µM | TGI (COLO 205 colon): > 100 µM | TGI (DLD-1 colon): > 100 µM | TGI (DMS 114 small cell lung): > 100 µM | TGI (DMS 273 small cell lung): > 100 µM | TGI (EKVX NSCLC): > 100 µM | TGI (HCC-2998 colon): > 100 µM | TGI (HCT-116 colon): > 100 µM | TGI (HCT-15 colon): > 100 µM | TGI (HL-60(TB) leukemia): > 100 µM | TGI (HOP-18 NSCLC): > 100 µM | TGI (HOP-62 NSCLC): > 100 µM | TGI (HOP-92 NSCLC): > 100 µM | TGI (HT29 colon): > 100 µM | TGI (IGROV1 ovarian): > 100 µM | TGI (K-562 leukemia): > 100 µM | TGI (KM12 colon): > 100 µM | TGI (KM20L2 colon): > 100 µM | TGI (LOX IMVI melanoma): > 100 µM | TGI (LXFL 529 NSCLC): > 100 µM | TGI (M14 melanoma): > 100 µM | TGI (M19-MEL melanoma): > 100 µM | TGI (MALME-3M melanoma): > 100 µM | TGI (MOLT-4 leukemia): > 100 µM | TGI (NCI-H226 lung): > 100 µM | TGI (NCI-H460 lung): > 100 µM | TGI (OVCAR-3 ovarian): > 100 µM | TGI (OVCAR-4 ovarian): > 100 µM | TGI (OVCAR-5 ovarian): > 100 µM | TGI (OVCAR-8 ovarian): > 100 µM | TGI (RPMI-8226 leukemia): > 100 µM | TGI (RXF 393 renal): > 100 µM | TGI (SF-295 CNS): > 100 µM | TGI (SK-MEL-2 melanoma): > 100 µM | TGI (SK-MEL-28 melanoma): > 100 µM | TGI (SK-MEL-5 melanoma): > 100 µM | TGI (SK-OV-3 ovarian): > 100 µM | TGI (SN12C renal): > 100 µM | TGI (SNB-19 CNS): > 100 µM | TGI (SNB-75 CNS): > 100 µM | TGI (SNB-78 CNS): > 100 µM | TGI (SW-620 colon): > 100 µM | TGI (TK-10 renal): > 100 µM | TGI (U251 CNS): > 100 µM | TGI (UACC-257 melanoma): > 100 µM | TGI (UACC-62 melanoma): > 100 µM | TGI (UO-31 renal): > 100 µM | TGI (XF 498 CNS): > 100 µM
